Here are results for one molecule from article PMC4633953, “FR171456 is a specific inhibitor of mammalian NSDHL and yeast Erg26p” (Nature Communications, 2015).

The test system of assay [1] is Aspergillus terreus NF4906. As to the kind of experiment: Antifungal MIC. It counts as cell-based.
In assay [2] the test system is ergosterol pathway intermediates in C. albicans SC5314. As to the kind of experiment: Focused metabolomics: 13C-labelled ergosterol pathway intermediates in C. albicans. In kind it is cell-based. As to conditions: increasing doses. The protocol: For ^13C- labelling studies, the wild type C. albicans strain SC5314 was obtained from ATCC (Manassas, VA) and was cultured at 30 °C in YPD broth (1% yeast extract, 2% peptone, 2% dextrose) or Synthetic Medium (3% glycerol, 0.1% glucose, 65 mM NH4Cl, 1.7 mM NaCl, 7 mM KH2PO4, 1 mM CaCl2, 0.5 mM MgSO4).
Approximately 1.25 × 10^8 C. albicans cells from a saturated YPD culture were inoculated into 100 ml Synthetic Medium (SM) and grown at 30 °C to an OD of 1.0. Cells were washed once in modified SM (25 mM KPO4 pH 7.0, with glucose omitted) and suspended to 5 OD600 units per ml in modified SM.
Labelling reactions were performed in 12-ml glass tubes with PTFE-lined caps (Corning) and containing 1 ml cell suspension (∼6 × 10^7 cells), 10 μl DMSO or 10 μl compound dissolved in DMSO, 12 μl 1M D-Glucose (U^-13C6 glucose), and 10 μl 1 M (1,2^-13C2) sodium acetate (Cambridge Isotope Laboratories, Inc). Before LC-MS analysis, dried lipid extracts were dissolved in 500 μl methanol, vortexed and sonicated for 10 min.
Squalene, ergosterol, lanosterol and zymosterol were quantified using the tandem mass spectrometer API4000 triple quadrupole (AB Sciex) with atmospheric pressure chemical ionization (APCI), interfaced to an Agilent LC.
Cells (∼6 × 10^7) and compounds were preincubated 15 min at 30 °C (without shaking) before the addition of labelled substrates. Labelling was performed at 30 °C with shaking for 4 h. Reactions were stopped by adding 1 ml 30% KOH, 1 ml 100% ethanol, and 0.2 ml 2% pyrogallol. Samples were mixed and then heated at 80 °C for 30 min, then cooled to room temperature. Non-saponifiable lipids were extracted two times in petroleum ether, washed with water, dried under nitrogen gas and stored at −80 °C.
For compound calibration, 2 μM solutions in 0.1% formic acid were directly infused into the mass spectrometer. Ergosterol, lanosterol and zymosterol undergo dehydration and their molecular species are detected as [M+H-H2O]^+ while squalene is detected as [M+H]^+. Supplementary Table 4 lists the multiple reaction monitoring parameters of the sterols and squalene, as well as the ^13C incorporated metabolites. The mass spectrometer source parameters are the following: CUR=40, GS1=60, NC=4.5. TEM=450 CAD=4. A mobile phase of 0.2% formic acid in methanol and isocratic run at 0.4 ml min^−1 was employed to separate the metabolites on a Waters XBridge C18 3.5 μm 2.1 × 50 mm column. The run time was 4.5 min.

The subject of assay [3] is Cryptococcus neoformans NF3102. Kind of assay: Antifungal MIC. In kind it is cell-based.
Assay [4] has as its system ERG26 heterozygous strain (erg26Δ/ERG26). As to the kind of experiment: Haploinsufficiency profiling (HIP). In kind it is cell-based, S. cerevisiae. As to conditions: FR171456 at IC30 (4 μM). On the procedure:
The HIP assay was performed in 24-well plates (Greiner 662102), with 1.6 ml per well YPD. Experimental compounds were tested at n=2 within the same plate at or close to their IC30 concentration. Each plate contained two no drug controls, one positive control (Benomyl), 10 experimental compounds in duplicates and one contamination control that received no cells. A standard experiment was 4 plates per 40 experimental compounds processed robotically without human intervention. YPD per compound filled wells were inoculated with ∼250 yeast cells per strain (100 μl of a 1.5-OD600 per ml culture) from an overnight log phase preculture to start the experiment (Supplementary Fig. 2). The plates were pipetted with a standard 96 pipettor head by providing tip boxes preconfigured with a special tip pattern. Plates were incubated for 16 h in a robotic shaking incubator at 30 °C/550 r.p.m. allowing for ∼5 doublings. ∼250 yeast cells per strain (120 μl of a 1.2-OD600 per ml culture) were subsequently transferred into a preconfigured 24-well plate that was stored in a robotic plate reservoir at 4 °C until 30 min prior to its use where it was prewarmed to 30 °C. Once inoculated the new plate was incubated at 30 °C/550 r.p.m. to allow the next five yeast generations (generation 6–10) and the plate containing the first five doubling cultures was stored at 4 °C. […]

The test system of a further assay is 503 cancer cell lines. As to the kind of experiment: Compound activity profile against 503 cancer cell lines (72 h, Cell TiterGlo). As to conditions: sensitive = Amax <50% and IC50 <5 μM. In kind it is cell-based. The protocol: Supplementary figure 1. […] A plot […]
of normalized maximal inhibition (Y axis) versus the inflection point (X Axis) of a standard dose-response curve for increasing concentrations of FR171456 incubated with 503 mammalian cell lines in culture for 72h (each symbol), as determined by Cell TiterGlo (Promega)

The structures appear in SMILES notation. “And” between values parts separate entries of the source, which are not always exact repeats. Equal entries are not always repeated. “Also recorded” adds a separate entry of the source.

Turning to `C=C(CCC(C)C1CCC2C1(C)CC(O)C13CC14C(=O)CC(O)C(C)(C(=O)O)C4C(=O)CC23O)C(C)C` [FR171456, (1R,2aR,3R,5aR,5bS,7aR,8S,9S,11aS,12aR)-1,5b,9-trihydroxy-2a,8-dimethyl-3-((R)-6-methyl-5-methyleneheptan-2-yl)-7,11-dioxohexadecahydrocyclopenta[a]cyclopropa[e]-phenanthrene-8-carboxylic acid], the MIC in assay [1] is 4 µg/mL and 9 µM. In assay [2], the “effect on 13C-labelled ergosterol” value is “dose-dependent reduction”, the “effect on 13C-labelled lanosterol” value is listed as “increase” and the “effect on 13C-labelled zymosterol” value is recorded as “dose-dependent reduction”. The MIC in assay [3] is 32 µg/mL and 72 µM. Besides, the “strain sensitivity in HIP profile” value in assay [4] is given as “most significant hypersensitivity”. In addition, the “anti-proliferative activity across cell line panel” value in the assay with 503 cancer cell lines is on record as “not anti-proliferative; also recorded: unaffected; also recorded: only five cell lines were sensitive”.
